Read-outs that look alike come from different tables or passages of the source.
Experiment: Determination of stability of UTP and related compound (solution left to stand, HPLC, decomposition rate)
Format: physicochemical
Experimental: In order to evaluate stability of UTP free, stability of aqueous solutions of UTP free and UTP sodium salt (UTP-Na) and a dimethylacetamide solution of UTP-tributylamine salt (UTP-TBA) was examined. Also, stability of aqueous solutions of UDP free and UDP-Na as comparison control was also determined. The solution of each substance was left to stand for a certain period at −20° C., 25° C. or 50° C., and the concentration of each substance was determined by HPLC to calculate a decomposition rate. Here, the decomposition rate was defined as the following [equation 1]. Decomposition rate (%) of each substance={100−(HPLC % of each substance at determination/HPLC % of each substance at test start)×100} [equation 1]

[1] = aqueous solution left to stand at 25° C., 8 h, 16 mM UTP free, 10 mM UDP free
[2] = aqueous solution left to stand at 25° C., 24 h, 16 mM UTP free, 10 mM UDP free
[3] = 50° C., 8 h, 35 mM UTP-TBA in dimethylacetamide solution, 40 mM UTP-Na and 40 mM UDP-Na in aqueous solution
[4] = 50° C., 24 h, 35 mM UTP-TBA in dimethylacetamide solution, 40 mM UTP-Na and 40 mM UDP-Na in aqueous solution

SMILES | Decomposition rate [1] | Decomposition rate [2] | Decomposition rate [3] | Decomposition rate [4] | Stability during storage of the solution | Decomposition rate (aqueous solution left to stand at −20° C., 18 h, 16 mM UTP free) | Stability during storage of the solution (compared to UTP sodium salt, UDP free and UDP sodium salt)
O=c1ccn([C@@H]2O[C@H](COP(=O)(O)OP(=O)(O)O)[C@@H](O)[C@H]2O)c(=O)[nH]1 [UDP free, uridine 5′-diphosphoric acid] | 0% | 0% |  |  |  |  | 
O=c1ccn([C@@H]2O[C@H](COP(=O)([O-])OP(=O)([O-])O)[C@@H](O)[C@H]2O)c(=O)[nH]1.[Na+].[Na+] [UDP-Na, UDP sodium salt] |  |  | 2% | 5% |  |  | 
O=c1ccn([C@@H]2O[C@H](COP(=O)(O)OP(=O)(O)OP(=O)(O)O)[C@@H](O)[C@H]2O)c(=O)[nH]1 [UTP free, uridine 5′-triphosphoric acid] | 4% | 12% |  |  | clearly low stability | 4% | 
O=c1ccn([C@@H]2O[C@H](COP(=O)([O-])OP(=O)([O-])OP(=O)([O-])O)[C@@H](O)[C@H]2O)c(=O)[nH]1.[Na+].[Na+].[Na+] [UTP-Na, UTP sodium salt] |  |  | 2% | 6% |  |  | 
CCCCN(CCCC)CCCC.O=c1ccn([C@@H]2O[C@H](COP(=O)(O)OP(=O)(O)OP(=O)(O)O)[C@@H](O)[C@H]2O)c(=O)[nH]1 [UTP-TBA, UTP-tributylamine salt] |  |  | 7% | 18% |  |  | clearly low stability

— patent US10179799B2, “Method for producing P1,P4-di(uridine 5′-) tetraphosphate” (YAMASA CORPORATION, priority 2012, dated 2019)
